Data published in US9681664B2, “Macrocyclic picolinamides as fungicides” (Dow Agrosciences LLC, priority 2012, dated 2017).
Read-outs that look alike come from different tables or passages of the source.

How the values were obtained:
Type in all cases: in vivo
[1] = system: Mycosphaerella graminicola; Anamorph: Septoria tritici; test: Leaf blotch of wheat (SEPTTR) disease control on wheat seedlings; conditions: Zymoseptoria tritici; for pest or weed control at 121.5 g/ha: Wheat Leaf Blotch, low volume application, 121.5 g/H; for pest or weed control at 100 ppm: High volume application
Method in brief: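 Protective or curative format: Septoria tritici inoculation either preceded or followed fungicide application to first-leaf Yuma wheat. Severity scored 0–100%; control expressed versus untreated.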

Leptosphaeria nodorum = test: Wheat glume blotch (LEPTNO) disease control; conditions: Parastagonospora nodorum, 24 h, High volume application, 1 Day Protectant, read-out: LEPTNO 1 DP disease control
Protocol: Technical grades of materials were dissolved in acetone, which were then mixed with nine volumes of water containing 110 ppm Triton X-100. The fungicide solutions were applied onto wheat seedlings using an automated booth sprayer to run-off. All sprayed plants were allowed to air dry prior to further handling. All fungicides were evaluated using the aforementioned method for their activity vs. all target diseases. Wheat leaf blotch and brown rust activity were also evaluated using track spray applications, in which case the fungicides were formulated as EC formulations, containing 0.1% Trycol 5941 in the spray solutions. Wheat plants (variety Yuma) were grown from seed in a greenhouse in 50% mineral soil/50% soil-less Metro mix until the first leaf was fully emerged, with 7-10 seedlings per pot. These plants were inoculated with an aqueous spore suspension of Leptosphaeria nodorum 24 hr after fungicide treatments. After inoculation the plants were kept in 100% relative humidity (one day in a dark dew chamber followed by two days in a lighted dew chamber at 20° C.) to permit spores to germinate and infect the leaf. The plants were then transferred to a greenhouse set at 20° C. for disease to develop. Fungicide formulation, application and disease assessment followed the procedures as described in the Example A.

Erysiphe cichoracearum = test: Powdery mildew of cucumber (ERYSCI) disease control; conditions: Golovinomyces cichoracearum, 24 h, 1 Day Protectant, high volume, read-out: Disease Control ERYSCI 1 DP
Protocol: Technical grades of materials were dissolved in acetone, which were then mixed with nine volumes of water containing 110 ppm Triton X-100. The fungicide solutions were applied onto wheat seedlings using an automated booth sprayer to run-off. All sprayed plants were allowed to air dry prior to further handling. All fungicides were evaluated using the aforementioned method for their activity vs. all target diseases. Wheat leaf blotch and brown rust activity were also evaluated using track spray applications, in which case the fungicides were formulated as EC formulations, containing 0.1% Trycol 5941 in the spray solutions. Cucumber seedlings (variety Bush Pickle) were grown in soil-less Metro mix, with one plant per pot, and used in the test when 12 to 14 days old. Plants were inoculated with a spore suspension 24 hr following fungicide treatments. After inoculation the plants remained in the greenhouse set at 20° C. until disease was fully expressed. Fungicide formulation, application and disease assessment on the sprayed leaves followed the procedures as described in the Example A.

[2] = system: Blumeria graminis f. sp. hordei; Synonym: Erysiphe graminis f. sp. hordei; test: Barley powdery mildew (ERYSGH) disease control; conditions: 24 h, 1 Day Protectant, high volume, read-out: Disease Control ERYSGH 1 DP
Protocol: Technical grades of materials were dissolved in acetone, which were then mixed with nine volumes of water containing 110 ppm Triton X-100. The fungicide solutions were applied onto wheat seedlings using an automated booth sprayer to run-off. All sprayed plants were allowed to air dry prior to further handling. All fungicides were evaluated using the aforementioned method for their activity vs. all target diseases. Wheat leaf blotch and brown rust activity were also evaluated using track spray applications, in which case the fungicides were formulated as EC formulations, containing 0.1% Trycol 5941 in the spray solutions. Barley seedlings (variety Harrington) were propagated in soil-less Metro mix, with each pot having 8 to 12 plants, and used in the test when first leaf was fully emerged. Test plants were inoculated by dusting with infected stock plants 24 hr after fungicide treatments. After inoculation the plants were kept in a greenhouse set at 20° C. for disease to develop. Fungicide formulation, application and disease assessment on the sprayed leaves followed the procedures as described in the Example A.

Alternaria solani = test: Tomato early blight (ALTESO) disease control; conditions: 24 h, 1 Day Protectant, high volume, read-out: Disease Control ALTESO 1 DP
Protocol: Technical grades of materials were dissolved in acetone, which were then mixed with nine volumes of water containing 110 ppm Triton X-100. The fungicide solutions were applied onto wheat seedlings using an automated booth sprayer to run-off. All sprayed plants were allowed to air dry prior to further handling. All fungicides were evaluated using the aforementioned method for their activity vs. all target diseases. Wheat leaf blotch and brown rust activity were also evaluated using track spray applications, in which case the fungicides were formulated as EC formulations, containing 0.1% Trycol 5941 in the spray solutions. Tomato plants (variety Outdoor girl) were propagated in soil-less Metro mix, with each pot having one plant, and used when 12 to 14 days old. Test plants were inoculated with an aqueous spore suspension of Alternaria solani 24 hr after fungicide treatments. After inoculation the plants were kept in 100% relative humidity (one day in a dark dew chamber followed by two to three days in a lighted dew chamber at 20° C.) to permit spores to germinate and infect the leaf. The plants were then transferred to a growth room at 22° C. for disease to develop. Fungicide formulation, application and disease assessment on the sprayed leaves followed the procedures as described in the Example A.

[3] = 24 h, 1 Day Protectant, read-out: Disease Control SEPTTR 1 DP 121.5 g/H
[4] = 72 h, 3 Day Curative, read-out: Disease Control SEPTTR 3 DC 121.5 g/H
[5] = 24 h, 1 Day Protectant, read-out: SEPTTR 1DP disease control
[6] = 72 h, 3 Day Curative, read-out: SEPTTR 3DC disease control

C=C(C)CO[C@H]1CCC[C@H](NC(=O)c2nccc(OC)c2OCOC(C)=O)C(=O)O[C@@H](C)[C@@H]1OC [F250]
pest or weed control at 121.5 g/ha [1, 3]: < 0%
pest or weed control at 121.5 g/ha [1, 4]: 0 to 80%
pest or weed control at 100 ppm (Leptosphaeria nodorum): 80 to 100%
pest or weed control at 100 ppm (Erysiphe cichoracearum): < 0%
pest or weed control at 100 ppm [2]: 0 to 80%
pest or weed control at 100 ppm (Alternaria solani): 0 to 80%

COc1ccnc(C(=O)N[C@H]2CCC[C@H](OCC(C)C)[C@@H](OC)[C@H](C)OC2=O)c1OCOC(C)=O [F251]
pest or weed control at 121.5 g/ha [1, 3]: < 0%
pest or weed control at 121.5 g/ha [1, 4]: < 0%
pest or weed control at 100 ppm (Leptosphaeria nodorum): 80 to 100%
pest or weed control at 100 ppm (Erysiphe cichoracearum): < 0%
pest or weed control at 100 ppm [2]: < 0%
pest or weed control at 100 ppm (Alternaria solani): 0 to 80%

COc1ccnc(C(=O)N[C@H]2CCC[C@H](OCC(C)C)[C@@H](OC)[C@H](C)OC2=O)c1OCOC(=O)C(C)C [F254]
pest or weed control at 121.5 g/ha [1, 3]: < 0%
pest or weed control at 121.5 g/ha [1, 4]: < 0%
pest or weed control at 100 ppm (Leptosphaeria nodorum): 80 to 100%
pest or weed control at 100 ppm (Erysiphe cichoracearum): < 0%
pest or weed control at 100 ppm [2]: 0 to 80%
pest or weed control at 100 ppm (Alternaria solani): 0 to 80%

COc1ccnc(C(=O)N[C@H]2CCC[C@H](Oc3ccccc3)[C@@H](Oc3ccccc3)[C@H](C)OC2=O)c1OCOC(C)=O [F20]
pest or weed control at 100 ppm [1, 5]: 80 to 100%
pest or weed control at 100 ppm [1, 6]: 80 to 100%
pest or weed control at 100 ppm (Leptosphaeria nodorum): 80 to 100%
pest or weed control at 100 ppm (Erysiphe cichoracearum): 0 to 80%
pest or weed control at 100 ppm [2]: 0 to 80%
pest or weed control at 100 ppm (Alternaria solani): 0 to 80%

COc1ccnc(C(=O)N[C@H]2CCC[C@H](OCC(C)C)[C@@H](Oc3ccccc3)[C@H](C)OC2=O)c1OCOC(C)=O [F26]
pest or weed control at 100 ppm [1, 5]: 80 to 100%
pest or weed control at 100 ppm [1, 6]: 80 to 100%
pest or weed control at 100 ppm (Leptosphaeria nodorum): 80 to 100%
pest or weed control at 100 ppm (Erysiphe cichoracearum): 0 to 80%

COc1ccnc(C(=O)N[C@H]2CCC[C@H](Oc3ccccc3)[C@@H](OCC(C)C)[C@H](C)OC2=O)c1OCOC(C)=O [F28]
pest or weed control at 100 ppm [1, 5]: 80 to 100%
pest or weed control at 100 ppm [1, 6]: 80 to 100%
pest or weed control at 100 ppm (Leptosphaeria nodorum): 0 to 80%
pest or weed control at 100 ppm (Erysiphe cichoracearum): 0 to 80%
pest or weed control at 100 ppm [2]: 80 to 100%
pest or weed control at 100 ppm (Alternaria solani): 0 to 80%

CCCO[C@H]1CCC[C@H](NC(=O)c2nccc(OC)c2OC(C)=O)C(=O)O[C@@H](C)[C@@H]1Oc1ccccc1 [F141]
pest or weed control at 100 ppm [1, 5]: 80 to 100%
pest or weed control at 100 ppm [1, 6]: 80 to 100%
pest or weed control at 100 ppm (Leptosphaeria nodorum): 80 to 100%
pest or weed control at 100 ppm (Erysiphe cichoracearum): 0 to 80%
pest or weed control at 100 ppm [2]: 80 to 100%
pest or weed control at 100 ppm (Alternaria solani): 80 to 100%

C=C(C)CO[C@H]1CCC[C@H](NC(=O)c2nccc(OC)c2OCOC(=O)C(C)C)C(=O)O[C@@H](C)[C@@H]1OC [F253]
pest or weed control at 121.5 g/ha [1, 3]: < 0%
pest or weed control at 121.5 g/ha [1, 4]: < 0%
pest or weed control at 100 ppm (Leptosphaeria nodorum): 80 to 100%
pest or weed control at 100 ppm (Erysiphe cichoracearum): < 0%
pest or weed control at 100 ppm [2]: 0 to 80%
pest or weed control at 100 ppm (Alternaria solani): 0 to 80%

COc1ccnc(C(=O)N[C@H]2CCC[C@H](Oc3ccccc3)[C@@H](OC)[C@H](C)OC2=O)c1OCOC(C)=O [F252]
pest or weed control at 121.5 g/ha [1, 3]: 0 to 80%
pest or weed control at 121.5 g/ha [1, 4]: 0 to 80%
pest or weed control at 100 ppm (Leptosphaeria nodorum): 80 to 100%
pest or weed control at 100 ppm (Erysiphe cichoracearum): < 0%
pest or weed control at 100 ppm [2]: 0 to 80%
pest or weed control at 100 ppm (Alternaria solani): 0 to 80%

COc1ccnc(C(=O)N[C@H]2CCC[C@H](OCC(C)C)[C@@H](OC3CCCC3)[C@H](C)OC2=O)c1OCOC(C)=O [F39]
pest or weed control at 100 ppm [1, 5]: 80 to 100%
pest or weed control at 100 ppm [1, 6]: 80 to 100%
pest or weed control at 100 ppm (Leptosphaeria nodorum): 80 to 100%
pest or weed control at 100 ppm (Erysiphe cichoracearum): 80 to 100%
pest or weed control at 100 ppm [2]: 80 to 100%
pest or weed control at 100 ppm (Alternaria solani): 80 to 100%

COc1ccnc(C(=O)N[C@H]2CCC[C@H](OCc3ccccc3)[C@@H](Oc3ccccc3)[C@H](C)OC2=O)c1OCOC(C)=O [F31]
pest or weed control at 100 ppm [1, 5]: 80 to 100%
pest or weed control at 100 ppm [1, 6]: 80 to 100%
pest or weed control at 100 ppm (Leptosphaeria nodorum): 80 to 100%
pest or weed control at 100 ppm (Erysiphe cichoracearum): < 0%
pest or weed control at 100 ppm [2]: 0 to 80%
pest or weed control at 100 ppm (Alternaria solani): 0 to 80%

COc1ccnc(C(=O)N[C@H]2CCC[C@H](Oc3ccccc3)[C@@H](OC)[C@H](C)OC2=O)c1OCOC(=O)C(C)C [F255]
pest or weed control at 121.5 g/ha [1, 3]: 0 to 80%
pest or weed control at 121.5 g/ha [1, 4]: 0 to 80%
pest or weed control at 100 ppm (Leptosphaeria nodorum): 80 to 100%
pest or weed control at 100 ppm (Erysiphe cichoracearum): < 0%
pest or weed control at 100 ppm [2]: 0 to 80%
pest or weed control at 100 ppm (Alternaria solani): 0 to 80%

COc1ccnc(C(=O)N[C@H]2CCC[C@H](OCc3ccccc3)[C@@H](OCc3ccccc3)[C@H](C)OC2=O)c1OCOC(C)=O [F30]
pest or weed control at 100 ppm [1, 5]: 80 to 100%
pest or weed control at 100 ppm [1, 6]: 0 to 80%
pest or weed control at 100 ppm (Leptosphaeria nodorum): 80 to 100%
pest or weed control at 100 ppm (Erysiphe cichoracearum): 0 to 80%
pest or weed control at 100 ppm [2]: 0 to 80%
pest or weed control at 100 ppm (Alternaria solani): 0 to 80%

COc1ccnc(C(=O)N[C@H]2CCC[C@H](Oc3ccccc3)[C@@H](OCC(C)C)[C@H](C)OC2=O)c1OCOC(=O)C(C)C [F35]
pest or weed control at 100 ppm [1, 5]: 80 to 100%
pest or weed control at 100 ppm [1, 6]: 80 to 100%
pest or weed control at 100 ppm (Erysiphe cichoracearum): 80 to 100%
pest or weed control at 100 ppm [2]: 80 to 100%
pest or weed control at 100 ppm (Alternaria solani): 80 to 100%

COc1ccnc(C(=O)N[C@H]2CCC[C@H](OCC(C)C)[C@@H](OCC(C)C)[C@H](C)OC2=O)c1OCOC(C)=O [F29]
pest or weed control at 100 ppm [1, 5]: 80 to 100%
pest or weed control at 100 ppm [1, 6]: 80 to 100%
pest or weed control at 100 ppm (Leptosphaeria nodorum): 80 to 100%
pest or weed control at 100 ppm (Erysiphe cichoracearum): 80 to 100%
pest or weed control at 100 ppm [2]: 80 to 100%
pest or weed control at 100 ppm (Alternaria solani): 80 to 100%

COc1ccc(O[C@H]2CCC[C@H](NC(=O)c3nccc(OC)c3OCOC(C)=O)C(=O)O[C@@H](C)[C@@H]2OC2CCCC2)cc1 [F170]
pest or weed control at 100 ppm [1, 5]: 80 to 100%
pest or weed control at 100 ppm [1, 6]: 80 to 100%
pest or weed control at 100 ppm (Erysiphe cichoracearum): 0 to 80%
pest or weed control at 100 ppm [2]: 0 to 80%
pest or weed control at 100 ppm (Alternaria solani): 80 to 100%
